The source of these data is PMC7470102, “Synthesis, anticancer evaluation and molecular docking studies of new benzimidazole- 1,3,4-oxadiazole derivatives as human topoisomerase types I poison” (Journal of Enzyme Inhibition and Medicinal Chemistry, 2020).

Structures are written as SMILES. Where only a bound is given, the exact number is not on record here.

Experiment [1] relates to MCF-7 (human breast adenocarcinoma cell line). Kind of experiment: MTT cytotoxicity assay, MCF-7. The format is cell-based. To be noted: Homo sapiens, MCF7, MCF-7 cell line, read-out: IC50 against MCF-7. The protocol:
(§1) The anticancer activity of compounds 5a–5o were screened according to the MTT assays. The MTT assays were performed as previously described[32]^,[33]. Anticancer activity of final compounds was assessed against five different cancer cell lines A549 (lung carcinoma cell line), HeLa (cervical cell line), MCF-7 (human breast adenocarcinoma cell line), HepG2 (human liver carcinoma cell line) and C6 (rat glioma cell line) cell lines as well as NIH3T3 (mouse embryo fibroblast cell line). Doxorubicin and Hoechst 33342 were used as the reference drugs in the MTT assays.
(§2) The benzimidazole-1,3,4-oxadiazole derivatives (5a-5o) were tested their cytotoxic effects in vitro using five cancer cell line A549 (lung carcinoma cell line), HeLa (cervical cell line), MCF-7 (human breast adenocarcinoma cell line), HepG2 (human liver carcinoma cell line) and C6 (rat glioma cell line) cell lines as well as NIH3T3 (mouse embryo fibroblast cell line). Doxorubicin and Hoechst 33342 were used for this study as a reference drugs.
(Formazan colour is commonly taken as a measure of viable cells.)

Experiment [2] has as its system C6 (rat glioma cell line). Nature of the experiment: MTT cytotoxicity assay, C6. The format is cell-based. The settings on record: Rattus norvegicus, read-out: IC50 against C6. The protocol: as §1, §2
The test system of experiment [3] is HepG2 (human liver carcinoma cell line). Nature of the experiment: MTT cytotoxicity assay, HepG2. The format is cell-based. The settings on record: Homo sapiens, read-out: IC50 against HepG2. The protocol: as §1, §2
Experiment [4] has as its system HeLa (cervical cell line). Nature of the experiment: MTT cytotoxicity assay, HeLa. The format is cell-based. The settings on record: Homo sapiens, read-out: IC50 against HeLa. The protocol:
as §1, §2

Experiment [5] relates to NIH3T3 (mouse embryo fibroblast cell line). Kind of experiment: MTT cytotoxicity assay, NIH3T3 healthy cells. In kind it is cell-based. To be noted: Mus musculus, read-out: IC50 against NIH3T3. Here is the method:
The anticancer activity of compounds 5a–5o were screened according to the MTT assays. The MTT assays were performed as previously described[32]^,[33]. Anticancer activity of final compounds was assessed against five different cancer cell lines A549 (lung carcinoma cell line), HeLa (cervical cell line), MCF-7 (human breast adenocarcinoma cell line), HepG2 (human liver carcinoma cell line) and C6 (rat glioma cell line) cell lines as well as NIH3T3 (mouse embryo fibroblast cell line). Doxorubicin and Hoechst 33342 were used as the reference drugs in the MTT assays. It is crucial that an anticancer agent affects the cancer cell line but having minimal or no side-effect on healthy cells. For this purpose, the cytotoxic effects of the active compounds on the NIH3T3 cell line were investigated (Table 2).

A further experiment deals with MCF-7 cell line. Kind of experiment: Flow cytometric analysis (Annexin V/PI), MCF-7. The format is cell-based, human. To be noted: MCF-7 cells. Here is the method: (§3) Death pathway of the carcinogenic cell lines was detected by Annexin V-FITC Apoptosis Detection Kit (BD, Pharmingen) as reported previously described. […] FCS Express software was used to display the percent of normal and apoptotic cells at different stages. […] The experiments were carried out in triplicates.
(§4) Annexin V/PI staining on tested cancer cells treated with the active compounds was performed to investigate induction of apoptosis. […] According to the MTT assay, compound 5n for A549 cell line; compounds 5a, 5d, 5e, 5o for MCF-7 cell line; compound 5k for C6 cell line; compound 5a for HepG2 cell line; compounds 5b, 5l and 5n for HeLa cell line were selected for the flow cytometric analysis. Furthermore, flow cytometry studies were performed for reference drug doxorubicin. Flow cytometric analysis diagrams of tested compounds and doxorubicin at IC50/2, IC50, and 2xIC50 concentrations on cancer cells were presented in Figures 7–11.
In general terms: Flow cytometry measures light scatter and fluorescence of single cells or particles in a stream.

The target of a further experiment is T1, Topoisomerase I (Homo sapiens, UniProt P11387).
T1 construct: purchased TopoGen TG1018-2
T1 sequence (P11387 1-765): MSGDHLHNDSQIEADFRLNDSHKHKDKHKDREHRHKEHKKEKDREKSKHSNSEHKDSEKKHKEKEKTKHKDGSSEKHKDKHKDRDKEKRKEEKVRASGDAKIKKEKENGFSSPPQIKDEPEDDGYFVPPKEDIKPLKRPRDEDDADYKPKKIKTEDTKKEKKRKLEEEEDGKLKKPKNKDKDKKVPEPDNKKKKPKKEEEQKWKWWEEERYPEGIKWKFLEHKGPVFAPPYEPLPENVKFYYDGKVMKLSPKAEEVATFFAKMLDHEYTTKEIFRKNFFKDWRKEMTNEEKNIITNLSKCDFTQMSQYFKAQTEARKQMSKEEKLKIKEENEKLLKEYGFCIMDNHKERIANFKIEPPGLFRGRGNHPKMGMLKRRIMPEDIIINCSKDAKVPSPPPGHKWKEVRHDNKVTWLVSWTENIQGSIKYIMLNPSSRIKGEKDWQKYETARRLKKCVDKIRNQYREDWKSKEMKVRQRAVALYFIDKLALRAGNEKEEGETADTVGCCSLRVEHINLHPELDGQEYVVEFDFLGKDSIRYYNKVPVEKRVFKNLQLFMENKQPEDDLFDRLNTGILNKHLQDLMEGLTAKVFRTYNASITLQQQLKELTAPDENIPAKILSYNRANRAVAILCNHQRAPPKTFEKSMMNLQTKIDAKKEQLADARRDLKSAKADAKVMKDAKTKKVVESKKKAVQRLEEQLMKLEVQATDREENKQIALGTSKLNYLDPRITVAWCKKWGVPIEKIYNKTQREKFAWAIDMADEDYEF
Nature of the experiment: DNA topoisomerase I assay (relaxation of supercoiled plasmid DNA, agarose gel). The format is biochemical. To be noted: agarose gel electrophoresis, camptothecin positive control, Figure 12. The protocol: The topoisomerase I inhibition activities of final compounds were measured as relaxation of supercoiled plasmid DNA using agarose gel electrophoresis and camptothecin was used as a positive control. The assay was carried out in a final volume of 20 µl reaction volume containing 2 µl of 10xTGS Buffer, 6 µl water, 2 µl supercoiled plasmid DNA, 2 µl test compound, 2 µl of Top1, 2 ul 10% SDS, 2 µl proteinase K, 2 µl DNA loading dye. After incubation of reaction mixtures at 37 °C for 30 min, electrophoresis was done on a 1% agarose gel at a potential 50 V for 75 min using 1xTAE buffer.
To determine whether the DNA intercalation properties of compounds 5a, 5b, 5d, 5e, 5k, 5l, 5n and 5o might result in Topo I inhibition, agarose gel electrophores is assay was performed to evaluate the Topo I inhibitory activity of them via agarose-gel electrophoresis and CPT was used as the positive control. The TopoGEN Topoisomerase I Drug Screening Kit were optimised and implemented to accomplish this goal.
In a previous studies, it was said that the compounds poisoning topoisomerase caused the formation of nick bands in such gel appearances, while the formation of Supercoiled bands was said to be caused by catalytic inhibitors that bound to either DNA or enzyme[40]^,[41].

Experiment [6] concerns A549 (lung carcinoma cell line). Nature of the experiment: MTT cytotoxicity assay, A549. In kind it is cell-based. The settings on record: Homo sapiens, A549, MTT assay, read-out: IC50 against A549. The protocol:
as §1, §2

The test system of a further experiment is HeLa cells. Kind of experiment: DNA synthesis inhibition assay (BrdU), HeLa. In kind it is cell-based. The settings on record: 48 h, 5b 0.698, 5l 0.224, 5n 0.205, doxorubicin 14.280 µg/mL. Here is the method: (§5) The BrdU cell proliferation method was performed to analyse the effects of the active compounds on proliferation of cancer cells. Cancer cells were seeded into the 96-well plates at a density of 1 × 10^4 cells. Compounds were added into the each well at three different concentrations (IC50/2, IC50 and 2xIC50) and the plates were incubated for 24 h. At the end of the incubation period, BrdU solution was added and cells were reincubated for 2 h at 37 °C. Anti-BrdU-POD ([…]) was added and the mixture was incubated for 90 min. Microplates were washed with PBS for three times. After adding substrate solution, the mixture was incubated for 15 min. OD of the wells were determined at 492 nm. Proliferation of control cells was assessed as 100% and growth inhibition % of cells, treated with test compounds and […] were calculated.
(§6) According to the MTT assay, compound 5n for A549 cell line; compounds 5a, 5d, 5e, 5o for MCF-7 cell line; compound 5k for C6 cell line; compound 5a for HepG2 cell line; compounds 5b, 5l and 5n for HeLa cell line were selected for the DNA synthesis inhibition assay. A549, C6, MCF-7, HepG2 and HeLa cells were incubated with three different concentrations (IC50/2, IC50, and […]) of the compounds for 24 and 48 h time periods. […] Doxorubicin was used as positive control.

Another experiment has as its system HepG2 cells. Kind of experiment: DNA synthesis inhibition assay (BrdU), HepG2. To be noted: 5a at 5.695 µg/mL, doxorubicin at 16.482 µg/mL. The format is cell-based, human. Here is the method:
as §5, §6

A further experiment deals with HepG2 cell line. Nature of the experiment: Flow cytometric analysis (Annexin V/PI), HepG2. The format is cell-based, human. To be noted: at IC50 concentrations, 24 h incubation. Here is the method:
as §3, §4

A further experiment concerns MCF7 cells. Kind of experiment: DNA synthesis inhibition assay (BrdU), MCF7. In kind it is cell-based, human. The settings on record: 48 h, 5e at 7.318 µg/mL, doxorubicin at 10.525 µg/mL. The protocol:
as §5, §6

The term IC50 denotes the concentration that gives 50% inhibition. On to `CCOc1ccc(-c2nc3ccc(-c4nnc(SCC(=O)N5CCN(c6ncccn6)CC5)o4)cc3[nH]2)cc1` [5o, 2-((5-(2-(4-Ethoxyphenyl)-1H-benzo[d]imidazol-6-yl)-1,3,4-oxadiazol-2-yl)thio)-1–(4-(pyrimidine-2-yl)-piperazin-1-yl)-ethane-1-on], for which the concentration for half-maximal inhibition (IC50) is 6.44 ± 0.287 µM in experiment [1]; 25 ± 1.24 µM in [2]; 59.4 ± 2.59 µM in experiment [3]; ≥ 100 µM in experiment [4]; 44.1 ± 2.1 µM in experiment [5]. The “percentage of apoptosis (early + late apoptotic cells)” value (from here on “percentage of apoptosis”) in the experiment with MCF-7 cell line is reported as 8.7%. On Topoisomerase I, the “Topo I inhibition activity” value is on record as “potent topo I inhibition activity”.
On to `CCN1CCN(C(=O)CSc2nnc(-c3ccc4nc(-c5ccc(O)cc5)[nH]c4c3)o2)CC1` [5b, 2-((5–(2-(4-Hydroxyphenyl)-1H-benzo[d]imidazol-6-yl)-1,3,4-oxadiazol-2-yl)thio)-1–(4-ethyl-piperazin-1-yl) -ethane-1-on], for which the IC50 in experiment [6] was ≥ 100 µM; in [1] it was ≥ 100 µM; in [2] it was ≥ 100 µM; in experiment [3], ≥ 100 µM; in experiment [4], 0.698 ± 0.032 µM; in experiment [5], 944.4 ± 7.62 µM. In the experiment on HeLa cells, the “% DNA synthesis inhibition” value stood at 49.70%. Also, the “Topo I inhibition activity” value on Topoisomerase I is on record as “potent topo I inhibition activity”.
For the molecule `O=C(CSc1nnc(-c2ccc3nc(-c4ccc(O)cc4)[nH]c3c2)o1)N1CCN(c2ccccn2)CC1` [5d, 2-((5-(2-(4-Hydroxyphenyl)-1H-benzo[d]imidazol-6-yl)-1,3,4-oxadiazol-2-yl)thio)-1-(4-(pyridin-2-yl)-piperazin-1-yl)-ethane-1-on], the IC50 was 9.15 ± 0.391 µM in [1]; 38.9 ± 1.92 µM in experiment [2]; ≥ 100 µM in experiment [3]; ≥ 100 µM in experiment [4]; 720.6 ± 5.03 µM in experiment [5]. Besides, in the experiment on MCF-7 cell line, the “percentage of apoptosis” value is given as 22.3%. Further, the “Topo I inhibition activity” value on Topoisomerase I is listed as “potent topo I inhibition activity”.
On to `CN1CCN(C(=O)CSc2nnc(-c3ccc4nc(-c5ccc(O)cc5)[nH]c4c3)o2)CC1` [5a, 2-((5–(2-(4-Hydroxyphenyl)-1H-benzo[d]imidazol-6-yl)-1,3,4-oxadiazol-2-yl)thio)-1–(4-methyl-piperazin-1-yl) -ethane-1-on], for which the IC50 in [6] was 43.3 ± 1.79 µM; in [1], 5.7 ± 0.254 µM; in experiment [2] it was 15.6 ± 0.615 µM; in experiment [3], 5.7 ± 0.283 µM; in experiment [4], 14 ± 0.65 µM; in [5], 39.1 ± 1.94 µM. Further, the “% DNA synthesis inhibition” value with HepG2 cells (24 h) was 60.89%; in the experiment on HepG2 cells (48 h), 72.05%. Further, the “percentage of apoptosis” value with MCF-7 cell line is given as 15.4%. Further, the “percentage of apoptotic cells” value in the experiment on HepG2 cell line is reported as 13.2%. In addition, on Topoisomerase I, the “Topo I inhibition activity” value is listed as “potent topo I inhibition activity”.
In the case of `O=C(CSc1nnc(-c2ccc3nc(-c4ccc(O)cc4)[nH]c3c2)o1)N1CCN(c2ncccn2)CC1` [5e, 2-((5–(2-(4-Hydroxyphenyl)-1H-benzo[d]imidazol-6-yl)-1,3,4-oxadiazol-2-yl)thio)-1-(4-(pyrimidine-2-yl)-piperazin-1-yl)-ethane-1-on], the IC50 is 7.32 ± 0.352 µM in [1]; ≥ 100 µM in experiment [2]; ≥ 100 µM in experiment [3]; ≥ 100 µM in [4]; 54 ± 2.68 µM in [5]. The “% DNA synthesis inhibition” value in the experiment on MCF7 cells turned out to be 93.81%. Further, the “percentage of apoptosis” value in the experiment on MCF-7 cell line worked out at 13.1%. Besides, the “Topo I inhibition activity” value at Topoisomerase I was “potent topo I inhibition activity”.
